The values below come from patent publication US11976056B2, “Substituted alkoxypyridinyl indolsulfonamides” (UCB Pharma GmbH, priority 2018, dated 2024).

One data set relates to CYP1A2. Briefly: CYP 450-1A2 induction assay in cryopreserved human hepatocytes. Particulars: 10 μM test compound, 72 h, compared to vehicle control. It is filed as in vitro ADME. As to the method: Cryopreserved human hepatocytes from a single donor are seeded on a 96 well collagen coated plate so that the final seeding density is 0.1×10^6 cells/well (final volume per well 0.1 mL). The cells are then incubated in seeding medium at 37° C., 95% humidity, 5% CO2 to allow the cells to attach. After 4 h, the seeding medium is replaced with 0.1 mL of pre warmed serum free Williams E medium containing 100 IU/mL penicillin, 100 μg/mL streptomycin, 10 μg/mL insulin, 2 mM L glutamine and 0.1 μM hydrocortisone.
The next day, cells are dosed with test compound in assay medium (final test compound concentration 10 μM; final DMSO concentration 0.1%). Positive control inducers, omeprazole (50 μM) for CYP1A2, phenobarbital (500 μM) for CYP2B6 and rifampicin (10 μM) for CYP3A4, are incubated alongside the test compound. Negative control wells are included where the test compound is replaced by vehicle solvent (0.1% DMSO in assay medium). Each test compound is dosed in triplicate. The cells are exposed to the solutions for 72 h with fresh solution added every 24 h.
For catalytic activity determination, a solution of the probe substrates, phenacetin (final concentration 25 μM), bupropion (final concentration 100 μM) and midazolam (final concentration 2.5 μM) is prepared in pre warmed assay medium. At the end of the 72 h exposure period, the media is replaced with the cocktail of probe substrates. The hepatocytes are incubated for 30 min. An aliquot is removed at the end of the incubation period and placed into methanol containing internal standard in a 1:2 ratio. The samples are centrifuged at 2500 rpm at 4° C. for 20 min. An aliquot of supernatant is diluted with deionised water and levels of acetaminophen, hydroxybupropion and 1 hydroxymidazolam are quantified using Cyprotex generic LC MS/MS methods.
The hepatocytes are solubilised in 0.1M sodium hydroxide at room temperature and protein content in each well determined using Pierce™ BCA Protein Assay Kit (Thermo Scientific) using bovine serum albumin as a standard.
For catalytic activity determination, the concentration of metabolite formed at each test compound replicate is converted to CYP activity and normalised to protein. The fold change is determined by comparing to the vehicle control wells. The fold change observed at each test compound concentration is expressed as a percentage of the positive control compounds for each P450 isoform.

For data set [1], the target named is T1, GPR17 (Homo sapiens, UniProt Q13304). Particulars: activating ligands for GPR17; cited from earlier work.
Target sequence in this assay (Q13304 whole entry, species assumed): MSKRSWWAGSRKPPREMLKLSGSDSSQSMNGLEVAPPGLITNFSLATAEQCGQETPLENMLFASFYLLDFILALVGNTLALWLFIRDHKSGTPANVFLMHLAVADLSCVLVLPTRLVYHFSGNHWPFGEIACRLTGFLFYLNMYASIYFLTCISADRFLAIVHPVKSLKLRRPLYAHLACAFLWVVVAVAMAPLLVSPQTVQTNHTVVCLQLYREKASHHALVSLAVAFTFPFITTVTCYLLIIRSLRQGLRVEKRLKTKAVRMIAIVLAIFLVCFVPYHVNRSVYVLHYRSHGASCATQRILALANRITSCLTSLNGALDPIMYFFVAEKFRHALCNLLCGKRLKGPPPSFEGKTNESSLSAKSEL
Data set [2] deals with T1, GPR17. Briefly: cAMP accumulation functional assay (HTRF, Schild analysis vs MDL29,951). The data set is classed as cell-based. More on the design: host or cells: Flp-In T-REx CHO. The note with it: CHO hGPR17, Schild analysis against MDL29,951, activity range; read-out: cAMP assay pA2 (converted). As to the method: Flp-In T-REx CHO cells stably expressing human GPR17 receptor (CHO hGPR17) from Evi Kostenis' lab (Bonn University, Germany) were cultured at 37° C. in a humidified atmosphere of 5% CO2. Cells were grown in DMEM with Nutrient Mixture F-12 supplemented with hygromycin B (500 μg/ml) and blasticidin (30 μg/ml). Expression from the Flp-In locus was induced by treatment with doxycycline (1 μg/ml) for 16-20 h prior assays.
GPR17 activation can also recruit Gi-type G-protein signaling, resulting in a decrease of intracellular cyclic adenosine monophosphate (cAMP). Intracellular cAMP changes can be measured using the HTRF cAMP dynamic assay kit from CisBio (Codolet, France). Using homogenous time-resolved fluorescence technology (HTRF), the assay is based on competition between native cAMP produced by cells and cAMP labelled with the dye d2. The tracer binding was determined by an anti-cAMP antibody labeled with cryptate.
CHO hGPR17 were detached with PBS containing EDTA and dispatched in black 384-well plates with 5,000 cells per well. Cells were first incubated for 30 minutes at room temperature in HBSS Hepes (pH 7.4) containing vehicle or varying concentrations of test GPR17 antagonist/inverse agonist compounds. Then, a dose response curve of MDL29,951 GPR17 agonist (typically from 10^−5 M to 10^−10 m) was added on vehicle and on each test GPR17 antagonist/inverse agonist compound concentration in a final volume of 20 μL HBSS Hepes buffer (pH 7.4) containing 1% DMSO, 5 μM forskolin and 0.1 mM IBMX. After 60 minutes incubation at room temperature, the reaction is terminated and the cells lysed by adding the d2 detection reagent and the cryptate reagent in 10 μL lysis buffer each according to manufacturer's instructions. After 60 minutes incubation, changes in cAMP concentrations are measured according to manufacturer's instructions using an Envision plate reader with laser excitation. All incubations were performed in duplicate. Data was analyzed using GraphPad Prism software using the 4-parameter logistic equation to measure MDL29,951 pEC50s in absence and presence of GPR17 antagonist/inverse agonist test compounds. Dose ratio (DR) were plotted against antagonist concentrations and Schild analysis provided estimated affinity pA2 of GPR17 antagonist/inverse agonist test compounds.
Target sequence in this assay (Q13304 whole entry): as the sequence (Q13304 whole entry, species assumed) above

Each structure is given as a SMILES string.

As for `O=S(=O)(Nc1nc(F)c(OCCF)cc1F)c1c[nH]c2cc(Cl)ccc12` [Comparative Example 1, 6-chloro-N-[3,6-difluoro-5-(2-fluoroethoxy)pyridin-2-yl]-1H-indole-3-sulfonamide, reference compound], in the data set on CYP1A2, the “induction of CYP1A2” value worked out at 16 fold.

For the compound `NCC(=O)CCC(=O)O` [Example 5-ALA, 5 amino levulinic acid], the “amounts needed in the assays” value on GPR17 [1] is listed as “three digit micromolar range”.

`O=S(=O)(Nc1nc(F)c(OCCF)cc1F)c1c[nH]c2c(Cl)c(Cl)ccc12` [Example I-1, 6,7-dichloro-N-[3,6-difluoro-5-(2-fluoroethoxy)pyridin-2-yl]-1H-indole-3-sulfonamide]: the Kb at GPR17 [2] is at most 3.16 nM. Also, the “induction of CYP1A2” value in the data set with CYP1A2 is “no CYP1A2 induction”.

In the case of `O=S(=O)(Nc1nc(F)c(OCCF)cc1F)c1c[nH]c2c(OC3CC3)c(Cl)ccc12` [Example I-2, 6-chloro-7-cyclopropyloxy-N-[3,6-difluoro-5-(2-fluoroethoxy)pyridin-2-yl]-1H-indole-3-sulfonamide], on GPR17 [2], the Kb is at most 3.16 nM. Moreover, the “induction of CYP1A2” value with CYP1A2 was “no CYP1A2 induction”.

In the case of `O=S(=O)(Nc1nc(F)c(OCCF)cc1F)c1c[nH]c2c(C(F)F)c(Cl)ccc12` [Example I-3, 6-chloro-N-[3,6-difluoro-5-(2-fluoroethoxy)pyridin-2-yl]-7-(difluoromethyl)-1H-indole-3-sulfonamide], the Kb at GPR17 [2] was at most 3.16 nM. Moreover, the “induction of CYP1A2” value with CYP1A2 is reported as “no CYP1A2 induction”.

Regarding `O=S(=O)(Nc1ncc(OCCF)cc1F)c1c[nH]c2c(Cl)c(Cl)ccc12` [Example I-5, 6,7-dichloro-N-[3-fluoro-5-(2-fluoroethoxy)pyridin-2-yl]-1H-indole-3-sulfonamide], the Kb on GPR17 [2] was 3.16 to 31.6 nM.

Turning to `O=S(=O)(Nc1ncc(OCC(F)F)cc1F)c1c[nH]c2c(Cl)c(Cl)ccc12` [Example I-6, 6,7-dichloro-N-[5-(2,2-difluoroethoxy)-3-fluoropyridin-2-yl]-1H-indole-3-sulfonamide], on GPR17 [2], the Kb is 3.16 to 31.6 nM.

With `O=S(=O)(Nc1ncc(OCCF)cc1F)c1c[nH]c2c(C(F)F)c(Cl)ccc12` [Example I-7, 6-chloro-7-(difluoromethyl)-N-[3-fluoro-5-(2-fluoroethoxy)pyridin-2-yl]-1H-indole-3-sulfonamide], the Kb at GPR17 [2] is 3.16 to 31.6 nM.

`O=S(=O)(Nc1ncc(OCCF)cc1F)c1c[nH]c2c(F)c(C(F)F)ccc12` [Example I-8, 6-(difluoromethyl)-7-fluoro-N-[3-fluoro-5-(2-fluoroethoxy)pyridin-2-yl]-1H-indole-3-sulfonamide]: the Kb on GPR17 [2] is above 31.6 nM.

Turning to `O=S(=O)(Nc1nc(F)c(OCCF)cc1F)c1c[nH]c2c(F)c(Cl)ccc12` [Example I-10, 6-chloro-N-[3,6-difluoro-5-(2-fluoroethoxy)pyridin-2-yl]-7-fluoro-1H-indole-3-sulfonamide], the Kb at GPR17 [2] is at most 3.16 nM.

Take `O=S(=O)(Nc1nc(F)c(OCC(F)F)cc1F)c1c[nH]c2c(F)c(Cl)ccc12` [Example I-11, 6-chloro-N-[5-(2,2-difluoroethoxy)-3,6-difluoropyridin-2-yl]-7-fluoro-1H-indole-3-sulfonamide]: on GPR17 [2], the Kb was at most 3.16 nM.

For `O=S(=O)(Nc1nc(F)c(OCCF)cc1F)c1c[nH]c2c(C3CC3)c(Cl)ccc12` [Example I-12, 6-chloro-7-cyclopropyl-N-[3,6-difluoro-5-(2-fluoroethoxy)pyridin-2-yl]-1H-indole-3-sulfonamide], at GPR17 [2], the Kb was 3.16 to 31.6 nM. The “induction of CYP1A2” value with CYP1A2 is “no CYP1A2 induction”.

Regarding `COc1nc(NS(=O)(=O)c2c[nH]c3c(Cl)c(Cl)ccc23)c(F)cc1OCC(F)F` [Example I-13, 6,7-dichloro-N-[5-(2,2-difluoroethoxy)-3-fluoro-6-methoxypyridin-2-yl]-1H-indole-3-sulfonamide], the Kb on GPR17 [2] was at most 3.16 nM.

Turning to `O=S(=O)(Nc1ncc(OCC(F)F)cc1F)c1c[nH]c2c(C(F)F)c(Cl)ccc12` [Example I-14, 6-chloro-N-[5-(2,2-difluoroethoxy)-3-fluoropyridin-2-yl]-7-(difluoromethyl)-1H-indole-3-sulfonamide], the Kb on GPR17 [2] is 3.16 to 31.6 nM.

For the compound `COc1nc(NS(=O)(=O)c2c[nH]c3c(C(F)F)c(Cl)ccc23)c(F)cc1OCC(F)F` [Example I-15, 6-chloro-N-[5-(2,2-difluoroethoxy)-3-fluoro-6-methoxypyridin-2-yl]-7-(difluoromethyl)-1H-indole-3-sulfonamide], on GPR17 [2], the Kb is at most 3.16 nM.

For `COc1cc(OC(F)F)cnc1NS(=O)(=O)c1c[nH]c2c(Cl)c(Cl)ccc12` [Example I-16, 6,7-dichloro-N-[5-(difluoromethoxy)-3-methoxypyridin-2-yl]-1H-indole-3-sulfonamide], the Kb on GPR17 [2] is at most 3.16 nM.

Consider `COc1cc(OC(F)F)cnc1NS(=O)(=O)c1c[nH]c2c(C(F)F)c(Cl)ccc12` [Example I-17, 6-chloro-N-[5-(difluoromethoxy)-3-methoxypyridin-2-yl]-7-(difluoromethyl)-1H-indole-3-sulfonamide], for which the Kb at GPR17 [2] is 3.16 to 31.6 nM.

As for `O=S(=O)(Nc1nc(F)c(OCCF)cc1F)c1c[nH]c2c(OC(F)(F)F)c(Cl)ccc12` [Example I-18, 6-chloro-N-[3,6-difluoro-5-(2-fluoroethoxy)pyridin-2-yI]-7-(trifluoromethoxy)-1H-indole-3-sulfonamide], the Kb at GPR17 [2] is 3.16 to 31.6 nM.

On to `O=S(=O)(Nc1ncc(OCC(F)F)cc1F)c1c[nH]c2c(F)c(C(F)F)ccc12` [Example I-19, N-[5-(2,2-difluoroethoxy)-3-fluoropyridin-2-yl]-6-(difluoromethyl)-7-fluoro-1H-indole-3-sulfonamide], for which, at GPR17 [2], the Kb is above 31.6 nM.

`COc1nc(NS(=O)(=O)c2c[nH]c3c(Cl)c(C(F)F)ccc23)c(F)cc1OCC(F)F` [Example I-20, 7-chloro-N-[5-(2,2-difluoroethoxy)-3-fluoro-6-methoxypyridin-2-yl]-6-(difluoromethyl)-1H-indole-3-sulfonamide]: the Kb at GPR17 [2] is at most 3.16 nM.

Regarding `COc1cc(OCC(F)F)cnc1NS(=O)(=O)c1c[nH]c2c(Cl)c(Cl)ccc12` [Example I-21, 6,7-dichloro-N-[5-(2,2-difluoroethoxy)-3-methoxypyridin-2-yl]-1H-indole-3-sulfonamide], the Kb at GPR17 [2] is 3.16 to 31.6 nM.

Regarding `COc1nc(NS(=O)(=O)c2c[nH]c3c(F)c(Cl)ccc23)c(F)cc1OCC(F)F` [Example I-22, 6-chloro-N-[5-(2,2-difluoroethoxy)-3-fluoro-6-methoxypyridin-2-yl]-7-fluoro-1H-indole-3-sulfonamide], the Kb on GPR17 [2] is at most 3.16 nM.

`COc1nc(NS(=O)(=O)c2c[nH]c3c(F)c(Cl)ccc23)c(F)cc1OCCOC(F)F` [Example I-23, 6-chloro-N-[5-[2-(difluoromethoxy)ethoxy]-3-fluoro-6-methoxypyridin-2-yl]-7-fluoro-1H-indole-3-sulfonamide]: at GPR17 [2], the Kb is at most 3.16 nM.

For `NCc1[nH]cc(CCC(=O)O)c1CC(=O)O` [PBG, porphobilinogen], on GPR17 [1], the “amounts needed in the assays” value was “mM range”.
